In PMC12935919 (Frontiers in Pharmacology, 2026):

Tested on: C2C12 myotubes
Assay: DEX-induced muscle atrophy model, Western blot
Type: cell-based
Details: 10 μM DEX 24 h, alone or with 10 or 100 μM Myoki
Experimental: To induce C2C12 myotube differentiation, myoblasts were seeded in 6-well plates at 5 × 10^5 cells per well. Once reaching 90% confluency, they were cultured in DMEM supplemented with 2% horse serum (Thermo Fisher Scientific) and 1% penicillin-streptomycin. […] Differentiation was observed using an optical microscope (LEICA, 100×). Myotube morphology (length and diameter) was quantified in ImageJ (NIH) using the same images: myotube length was measured by tracing the long axis of each myotube (end-to-end), and myotube diameter was measured as the short-axis width at three positions along each myotube; the mean of the three width values was recorded as the diameter. For each experimental group, three randomly captured images (fields) were analyzed, and at least 15–20 myotubes per image were quantified under identical imaging settings.
Treated C2C12 cells (5 × 10^5 cells/well) were harvested in lysis buffer (Sigma-Aldrich, 2910) and centrifuged at 12,000 g for 10 min; proteins in the supernatant were collected. Protein concentrations were measured using the BCA Protein Assay Kit (Thermo Fisher Scientific). Each 20 μg sample was separated using 10% SDS–PAGE and transferred onto a polyvinylidene fluoride membrane (Millipore, Burlington, MA, USA). Non-specific binding was blocked with 5% non-fat dry milk for 1 h. The membranes were incubated overnight with primary antibodies: Anti-Myf5 (Abcam, ab125078), Anti-Myf6 (Abcam, ab182842), Anti-MyoD (Santa Cruz, sc-377460), Anti-MyoG (Santa Cruz, sc-52903), Anti-α-actinin (Santa Cruz, sc-17829), Anti-MYH3 (Santa Cruz, sc-53091), Anti-p-mTOR (Ser2448) (CST, #5536), Anti-p-Akt (Ser473) (CST, #9271), Anti-p-p70 S6 Kinase (Thr389) (CST, #9205), Anti-myostatin (Abcam, ab124721), Anti-atrogin-1/MAFbx (Santa Cruz, sc-166806), and Anti-MuRF1 (Santa Cruz, sc-398608). Membranes were then incubated for 1 h with HRP-conjugated secondary antibodies. Blot images were captured with the ECL system (Amersham, UK) and quantified using ImageJ.

`C[C@@H]1C[C@H]2[C@@H]3CCC4=CC(=O)C=C[C@]4(C)[C@@]3(F)[C@@H](O)C[C@]2(C)[C@@]1(O)C(=O)CO` [DEX, dexamethasone, reference compound] was tested, and the MuRF1 expression was “significant increase”, the atrogin-1/MAFbx expression was “significant increase” and the “expression levels of differentiated muscle fiber structural proteins” value was “significantly reduced”. The “phosphorylation levels of muscle growth signaling proteins (Akt, mTOR, p70S6K)” value was “significantly reduced”.
